Series [1] relates to TGFβ-treated mouse kidney fibroblasts. Briefly: Specificity: gene expression in TGFβ-treated mouse kidney fibroblasts. As to conditions: 10 µM, Fig. S6. The format is cell-based. As for the experimental part:
Primary human cardiac fibroblasts (HCF) were obtained from Promocell (Heidelberg, Germany) and maintained in Fibroblast Media 3 following manufacturer’s instructions (Promocell). Cells were used between passages 5 and 7. Cells were stimulated with recombinant hNGAL (500 ng/mL, R&D Systems) or with TGFβ (10 ng/mL, R&D Systems) for 24 h. To assess cell proliferation the MTT test was used following provider’s instructions (Roche). For protein analysis. Primary Mouse Kidney Fibroblasts (MKF) were isolated from Wild Type (WT) mice. Briefly, 8 weeks old mice were sacrificed by cervical dislocation and kidneys were cleaned and rinsed in cold DPBS (Dulbecco's Phosphate-Buffered Saline). The renal cortex was minced and incubated in Dulbecco’s modified eagle medium/Nutrient mixture F-12 (DMEM/F12, Sigma) containing 1 mg/mL collagenase A (Roche) during 25 min at 37 °C. The digestion was inactivated by adding culture medium (DMEM/F12 + 10% FBS) then the cell suspension was passed through a 100-μm cell strainer. […]
Frozen tissues (kidneys, heart) were homogenized in TRIzol (Life Technologies, Illinois, USA) using FastPrep beads (MP-Bio, CA, USA). cDNAs were generated using the Superscript II reverse transcriptase kit (Invitrogen,NY, USA), and qPCR was performed as previously described. Briefly, transcript levels were analysed in a CFX396 apparatus (Biorad). […]

A further series can be described thus: Chemical stability. It counts as physicochemical. As to the method:
Several parameters have been evaluated to determine ADME-Tox profile of the compounds. Two specific toxicity assays have been performed to assess hepatoxicity and cardiotoxicity. Hepatotoxicity was evaluated in isolated hepatocytes from swiss mice and determined by the thiazolyl blue tetrazolium bromide colorimetric assay (sigma, St Louis, MO, USA). Cardiotoxicity was evaluated using the commercially available Predictor hERG fluorescence polarization kit (Thermo Fisher Scientific, Illinois, USA). Several absorption, distribution, metabolism, and excretion (ADME) assays have been carried out. The following experiments were undertaken: stability in human microsomes, binding to human plasma protein, and CYP3A4 inhibition assay (Vivid CYP3A4 assay, Thermo Fisher Scientific, Illinois, USA). Physico-chemical properties were also assessed such as aqueous solubility and chemical stability.

Series [2] relates to myocardial infarction mouse model. Briefly: Myocardial infarction (MI) mouse model, left coronary artery ligation. It counts as in vivo. As to conditions: MI mice. As for the experimental part:
Animals were housed in a climate-controlled facility with a 12-h/12-h light/dark cycle and provided free access to food and water. Experiments were approved by the Darwin ethics committee of Sorbonne University, and conducted according to the INSERM animal care and use committee guidelines. The NGAL inhibitor GP1 was incorporated in regular chow (A04, Safe, Augy, France) at the dose of 625 mg GP1/kg of chow to achieve a low dose of 100 mg/kg/day of GP1 administered to the mice (based on a daily consumption of 4 g of chow).
Myocardial infarction (MI) was induced as previously described. Briefly, Chronic Heart Failure (CHF) resulted from left ventricle MI that was induced by left coronary artery ligation in 8 week-old male mice. Mice were anesthetized with intraperitoneal injections of ketamine (90 mg/kg, Merial, France) and xylazine (3.6 mg/kg, Bayer, France), followed by artificial ventilation. Anesthesia and sedation were controlled by monitoring heart rate and by performing paw pinch reflex and corneal reflex tests, before a thoracotomy was performed. The left main coronary artery was ligated close to its origin. After surgery, analgesia was prolonged during the awakening phase by an intramuscular injection of Beprucare (50 µg/kg). Post-infarction mortality in this mouse model is about 30–40%, primarily occurring around days 4–7 after MI. Sham-operated mice (control) were subjected to the same protocol except that the artery was not ligated. The inhibitor was administered the 8 day after MI for the indicated period. Tissue were harvested after 12 weeks after MI. Left ventricle diastolic and systolic diameters were measured in anesthetized (isofluorane 1.5%) mice, according to the American Society of Echocardiography’s leading-edge method (using Vivid 7 echograph a 14 MHz probe). In addition, LV outflow velocity was measured by pulsed waves, and CO was calculated as follows:
CO=aortic VTI×π×LV outflow diameter/2^2×heart rate, where VTI is velocity–time integral.
LV hemodynamic was assessed as described previously. Briefly, mice were anesthetized (chloral 320 mg/kg, IP) and the carotid artery cannulated with a pressure–volume catheter (SPR839, Millar-Instruments, USA) and the catheter was advanced into the LV. Pressure–volume loops were obtained at baseline and during loading by gently occluding the abdominal aorta. LV end-systolic and end-diastolic pressures, dP/dtmax/min, LV relaxation constant tau and were measured/calculated with IOX software (EMKA, France). Systolic BP was measured by tail-cuff plethysmography in trained conscious mice at weeks 8–10 using a BP2000 Visitech model. BP was measured every day in the same room at the same hour for 5 consecutive days. The BP measurements (expressed as mmHg) presented are the averages of the last 3 days.
In the MI model, heart was harvested after hemodynamics and the atria and the ventricles were separated and weighed individually. A section of the left ventricle was immersed in Bouin fixative solution. In the CKD model, kidneys were harvested and a section was immersed in paraformaldehyde fixative solution. After fixation, the sections were dehydrated and embedded in paraffin. From these sections, 5-μm thick histologic slices were obtained and were stained with Sirius Red. For the measurement of cardiac or renal collagen density, slides were examined and photographed under a light microscope (Zeiss) at 40× magnification. Collagen content was calculated as percentage of collagen area to total area of the image. Perivascular collagen was excluded from the analysis. For tubular lesions scoring, kidney slides were stained with Periodic Acid-Schiff kit (Sigma) and the score of tubules with injury (epithelial cell necrosis and detachment, and tubular dilation) was analyzed blinded to the experimental groups. […]

Consider `CC(=O)c1cccc(S(=O)(=O)NCc2ccccc2-n2cccn2)c1` [GPZ614741], for which the “Effect on TGFβ-induced gene expression of Col I, Fibronectin and IL6” value in series [1] is on record as “no inhibitory effect”. The “Stability to acidic pH, in words” value in the series “Chemical stability” is listed as “fully stable”. Also, the “Chemical Stability %” value in the series “Chemical stability” (Table S5) is listed as 103%. For the same molecule, the “SV (stroke volume)” value in series [2] (GP1 100 mg/kg/day in the food, three months, MI untreated 0.062 ± 0.005) turned out to be 0.086 ± 0.004 ml/beat. Besides, the “LVESD (left ventricular end systolic diameter)” value in series [2] (GP1 100 mg/kg/day in the food, three months, MI untreated 5.47 ± 0.13) is given as 4.90 ± 0.39 mm. In series [2] (GP1 100 mg/kg/day in the food, three months, MI untreated 5.82 ± 0.32), the “tau 1/2 (relaxation constant)” value is given as 4.33 ± 0.21. The molecule further yielded an LVEDP in series [2] (GP1 100 mg/kg/day in the food, three months, MI untreated 5.91 ± 0.49) of 4.41 ± 0.57 mmHg. In addition, in series [2] (GP1 100 mg/kg/day in the food, three months, MI untreated 6.31 ± 0.12), the “LVEDD (left ventricular end diastolic diameter)” value is 5.88 ± 0.39 mm. Besides, the “tau e (relaxation constant)” value in series [2] (GP1 100 mg/kg/day in the food, three months, MI untreated 7.97 ± 0.45) worked out at 6.08 ± 0.27. Moreover, the “LVW/TL (left ventricle weight/tibia length)” value in series [2] (GP1 100 mg/kg/day in the food, three months, MI untreated 8.3 ± 0.3) was found to be 8.8 ± 0.6 mg/mm. Further, the “HW/TL (heart weight/tibia length)” value in series [2] (GP1 100 mg/kg/day in the food, three months, MI untreated 10.9 ± 0.4) was 11.3 ± 0.8 mg/mm. Also, the “FS (fractional shortening)” value in series [2] (GP1 100 mg/kg/day in the food, three months, MI untreated 13.4 ± 1.0) came out at 17.2 ± 1.3 %. The “CO (cardiac output)” value in series [2] (GP1 100 mg/kg/day in the food, three months, MI untreated 29.4 ± 1.9) is 47.1 ± 3.3 mL/min. Further, the “LVESP (left ventricular end systolic pressure)” value in series [2] (GP1 100 mg/kg/day in the food, three months, MI untreated 78.82 ± 2.76) is listed as 82.31 ± 4.22 mmHg. Besides, in series [2] (GP1 100 mg/kg/day in the food, three months, MI untreated 3117 ± 253), the “LV (dP/dtmin), relaxation index” value came out at 4487 ± 413. Moreover, the “LV (dP/dtmax), contractility index” value in series [2] (GP1 100 mg/kg/day in the food, three months, MI untreated 3894 ± 259) is given as 4501 ± 320. For the same molecule, in series [2] (GP1 100 mg/kg/day in the food, Fig. 2A), the “LV interstitial collagen deposition vs non-treated MI group” value was “significantly lower”. The “Infarct size in mid LV sections” value in series [2] (GP1-treated, untreated 39.0 ± 2.3, n = 4–9, NS) amounted to 40.0 ± 1.8%. The “Upregulation of cardiac IL6 protein and inflammatory markers CD68, CD80, CD86” value in series [2] (GP1, Fig. 2E) was “significantly prevented”. Besides, the “Upregulation of Col I, αSMA and CTGF protein levels” value in series [2] (three months of GP1, Fig. 2B–D) is recorded as “significantly prevented”.
